Laboratory results reported in patent publication US20210361577A1, “LIPOPHILIC TRANSPORT PARTICLES FOR COSMETIC OR PHARMACEUTICAL ACTIVE INGREDIENTS” (IOI OLEO GMBH, priority 2018, published 2021).
Read-outs that look alike come from different tables or passages of the source.

Key:
[1] = contact angle with purified water (hydrophobicity) and its storage stability; format: physicochemical; conditions: after 16 weeks at room temperature (20° C.) and at 40° C.
Procedure: An advantageous property of the PGFEs for lipophilic carrier particles in accordance with claim 1 which should be considered is the hydrophobicity, which can be determined by determining the contact angle. The determination of the hydrophobicity is carried out by determining the contact angle between the PGFE in the solid physical state and a droplet of purified water. According to Young's equation, cos θ=(γSV−γSL)/γLV, wherein γSL is the interfacial tension between the PGFE and water, γLV is the interfacial tension of the water droplet and γSV is the surface tension between the PGFE and the surrounding air. θ is the contact angle. Thus, the larger the contact angle θ, the higher is the surface tension between the PGFE and the water and the higher is the hydrophobicity of the PGFE under investigation. The contact angles for the proposed polyglycerol fatty acid esters also correlate with the HLB value which is often used in pharmaceutical technology, which is on a scale of 0 to 20 and provides information regarding the ratio of lipophilic to hydrophilic molecular fractions, wherein the hydrophilic fraction increases with increasing HLB value. […]

[2] = cited from earlier work
[3] = active ingredient loading of carrier particles made by spray drying; format: physicochemical; conditions: spray drying process
Text: The carrier particles which are provided fulfil their purpose when they are loaded with an active ingredient, in particular a pharmaceutical active ingredient. This may, for example, be carried out by means of a spray drying process in accordance with claim 22, in which the active ingredient and the PGFE or PGFEs are initially dissolved and/or suspended in a suitable organic solvent and then are separated from the solvent once more by spray drying. Examples of suitable solvents are the ether tetrahydrofuran, the alcohol ethanol, the ketone acetone, the ester ethyl acetate or the alkane heptane. It has been shown that by means of spray drying, loading with a pharmaceutical active ingredient of up to 30% by weight is possible.
Lipophilic carrier particles in accordance with claim 1 can advantageously be loaded with pharmaceutical active ingredients from the group formed by non-steroidal antirheumatic agents.

| Compound | contact angle deviation from starting value on storage [1] [°] | increase in the crystal thickness ([2]; a- to b-modification transformation) | average lamellar structures per subcellular unit ([2]; a-modification) | average lamellar structures per subcellular unit ([2]; after complete transformation into the b-modification) | loading of the carrier particles with active ingredient [3] |
| --- | --- | --- | --- | --- | --- |
| CCCCCCCCCCCCCCCCCC(=O)OCC(COC(=O)CCCCCCCCCCCCCCCCC)OC(=O)CCCCCCCCCCCCCCCCC [glycerol tristearate] | 40 | approximately 67% | 6 | 10.5 |  |
| CC(C)Cc1ccc(C(C)C(=O)O)cc1 (centres unmarked) [ibuprofen] |  |  |  |  | up to 30 % by weight |
